Test results published in patent US10265383B2, “Treatment of radiation injury using ghrelin” (priority 2014, dated 2019).
Where no end group is shown, it is not given here. The star is where a group is joined. Octanoyl = CCCCCCCC(=O)*

What was measured:
[1] = Percent body weight change after WBI; type: in vivo, rat; conditions: 10 Gy WBI rats; treatment starting at 24 h; 30 day period
Experimental: (§1) Animal model of whole body irradiation. Rats were exposed to whole body irradiation (WBI) of 10 Gray (Gy) using a Gammacell® 1000 Irradiator (Atomic Energy of Canada Ltd) [radiation source: Cesium-137 (^137Cs)] delivered at a dose rate of about 2.5 GY/min. The animals were sedated with intra-peritoneal pentobarbital (40 mg/kg BW) prior to irradiation. During radiation, the container rotated continuously in front of the radiation source for even exposure. The animals were then returned to their cages, and food and water were provided.
Survival study. To assess the survival benefits of human ghrelin, animals were exposed to 10 Gy WBI and treated with human ghrelin (20 nmol/rat) subcutaneously once a day, with the first dose given either at 24 h or 48 h after WBI, for 6 days and observed for 30 days, and the survival recorded. The surviving animals beyond 30 days were then euthanized. Rats in the survival study were monitored twice daily and weighed once a day during the 30 day survival period. Net weight change was calculated as: % Weight Change ((weight at each day−weight at day 0)/weight at day 0)×100.

rat jejunum = test: Histopathology of jejunum after WBI (H&E, PAS); type: in vivo; conditions: Day 7 after 10 Gy WBI
Experimental: as §1
Blood and Tissue Collection after WBI. Rats exposed to 10 Gy WBI were treated with 20 nmol/rat human ghrelin once a day for 6 days starting at 24 h after radiation. At the 7th day, rats were euthanized, and blood, liver and the small intestine were removed under sterile conditions. The blood was allowed to clot and following centrifugation, the serum was transferred into pyrogenic free sterile tubes, and stored at −80° C. until further analysis. Liver (0.25 g) was snap-frozen in liquid nitrogen and stored at −80° C. for subsequent bacterial translocation analysis. Small intestine, 10-15 cm of the ileum, was harvested for gut permeability studies, 10 cm of jejunum was collected for histopathology, and the remaining 10 cm jejunal segment each was collected for RNA and protein analyses.
Histopathology. Jejunal segments were fixed in 1:10 buffered formalin and embedded in paraffin. Tissue blocks were sectioned at a thickness of 5 μm, transferred to glass slides, and stained with hematoxylin and eosin (H&E). The sections were observed under 100× magnification using a Nikon Eclipse Ti inverted microscope equipped with the Nikon Digital Sight Camera (Nikon Inc. Melville, N.Y.). Villus height was determined by measuring the distance from villus-crypt junction to the villus tip and crypt depth was determined by the distance from villus-crypt junction to basal crypt cells using the Nikon software. For each rat, 100 measurements of villus height and crypt depth were obtained from 5 circumferences. Periodic Acid Schiff (PAS) stained sections were used to quantify the number of goblet cells per villus. Three rats in each group were used to calculate the mean.

[2] = tested on: intestinal crypt apoptosis; test: Intestinal TUNEL staining after WBI; type: in vivo, rat; conditions: jejunum, Day 7 after 10 Gy WBI; vehicle increased by 638% from sham
Experimental: as §1
Blood and Tissue Collection after WBI. Rats exposed to 10 Gy WBI were treated with 20 nmol/rat human ghrelin once a day for 6 days starting at 24 h after radiation. At the 7th day, rats were euthanized, and blood, liver and the small intestine were removed under sterile conditions. The blood was allowed to clot and following centrifugation, the serum was transferred into pyrogenic free sterile tubes, and stored at −80° C. until further analysis. […]
TUNEL staining. The presence of apoptotic cells in the gut sections was assessed at the 7th day following WBI using a terminal deoxynucleotide transferase dUTP nick-end labeling (TUNEL) staining kit (Roche Diagnostics, Indianapolis, Ind.). […] TUNEL-positive cells in crypt were counted in 10 fields/section under a fluorescence microscope (200×), and the number of cells/crypt are shown.

ghrelin (GSS(Octanoyl)FLSPEHQRVQQRKESKKPPAKLQPR; listed as Homo sapiens) [human ghrelin]
percent body weight change [1]: consistent increase in the body weight
intestinal integrity and morphology (H&E) (rat jejunum; 6 days treatment starting at 24 h): improved the intestinal integrity and morphology
goblet cell number/villus, increase from Sham (rat jejunum; jejunum PAS stain, vehicle 29%): 5%
crypt depth, reduction from Sham (rat jejunum; jejunum, 20 nmol/rat for 6 days from 24 h, vehicle 14%): 2.8%
villus length, reduction from Sham (rat jejunum; jejunum, 20 nmol/rat for 6 days from 24 h, vehicle 19%): 2.0%
apoptotic (TUNEL positive) cells/crypt, reduction [2]: 62%
